The values that follow come from patent publication US20110288154A1, “RNA Interference Mediated Inhibition of Epithelial Sodium Channel (ENaC) Gene Expression Using Short Interfering Nucleic Acid (siNA)” (MERCK & CO., INC., priority 2008, published 2011).

[invAb] = inverted abasic unit; m = 2'-O-methyl; r = 2'-OH (RNA); f = 2'-fluoro

One data set has as its system rSCNN1A (r ENaCα) mRNA. Nature of the data set: Screening of ENaCα siNAs in Rat H-4-II-E cells (quantitative RT-PCR). It is filed as cell-based. The arrangement: Percent Reduction of the r ENaCα mRNA relative to a non-targeting control siNA (NTCs) / Rat % KD (efficacy of ENaCα mRNA knockdown): concentration or dose not given beside the values. As to conditions: for Mean (rSCNN1A expression normalized to the level of rGAPDH) / Percent Reduction of the r ENaCα mRNA relative to a non-targeting control siNA (NTCs) / Avg ENaCα Expression (rSCNN1A) / Avg GAPDH Expression (rGAPDH): Rat H-4-II-E cells, n = 3; for Mean (rSCNN1A expression normalized to the level of rGAPDH) / Percent Reduction of the r ENaCα mRNA relative to a non-targeting control siNA (NTCs) / Avg GAPDH Expression (rGAPDH): 24 hours post-transfection; for Avg ENaCα Expression (rSCNN1A): harvested 24 hours post-transfection; for Avg GAPDH Expression (rGAPDH): housekeeping gene used for normalisation. In a few lines:
(§1)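 Knockdown read-out: qRT-PCR quantified against a standard curve of same-cell-line RNA, ENaCα normalized to species housekeeping gene (GAPDH or 36B4) and expressed versus non-targeting control. Cells received lipid-complexed siNA, 25 nM final, in triplicate and were assayed at 24 h; IC50 by variable-slope sigmoidal fit.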

For another data set, the system named is mSCNN1A mRNA. The data set is described as follows: Screening of ENaCα siNAs in mouse NIH 3T3 cells (quantitative RT-PCR). It is filed as cell-based. The arrangement: Percent Reduction of the mSCNN1A mRNA relative to a non-targeting control siNA / Mouse % KD (efficacy of ENaCα mRNA knockdown): concentration or dose not given beside the values. As to conditions: for Mean (mSCNN1A expression normalized to the level of m36B4) / Percent Reduction of the mSCNN1A mRNA relative to a non-targeting control siNA / Avg ENaCα Expression (mSCNN1A) / Avg 36B4 Expression: mouse NIH 3T3 cells, n = 3; for Mean (mSCNN1A expression normalized to the level of m36B4) / Percent Reduction of the mSCNN1A mRNA relative to a non-targeting control siNA / Avg 36B4 Expression: 24 hours post-transfection; for Avg ENaCα Expression (mSCNN1A): harvested 24 hours post-transfection; for Avg 36B4 Expression: housekeeping gene used for normalisation. In a few lines:
as §1

As to “B ccGcAuGAAGAcGGccuuc TTB / GAAGGccGucuucAuGcGGUU (chain 1 CCGCAUGAAGACGGCCUUCTT; chain 2 GAAGGCCGUCUUCAUGCGGUU; siRNA; chain 1: DNA at AGT, 2'-fluoro at CU, [invAb] at 5' end, 3' end, backbone not given here; chain 2: sugars from the 5' end rrrmmffmfffffmfmfmmmm, backbone not given here) [Site 339]”, in the data set on rSCNN1A (r ENaCα) mRNA, the “Mean (rSCNN1A expression normalized to the level of rGAPDH)” value is 0.79, the “Percent Reduction of the r ENaCα mRNA relative to a non-targeting control siNA (NTCs)” value amounted to 38.3%, the “Avg ENaCα Expression (rSCNN1A)” value worked out at 15.81 and the “Avg GAPDH Expression (rGAPDH)” value is given as 19.92. Besides, in the data set with mSCNN1A mRNA, the “Mean (mSCNN1A expression normalized to the level of m36B4)” value turned out to be 0.35, the “Percent Reduction of the mSCNN1A mRNA relative to a non-targeting control siNA” value is −44.9%, the “Avg ENaCα Expression (mSCNN1A)” value worked out at 5.05 and the “Avg 36B4 Expression” value was 14.61.

Turning to “B cccuGcuGuccAcAGuGAc TTB / GUCAcuGuGGAcAGcAGGGUU (sense CCCUGCUGUCCACAGUGACTT; antisense GUCACUGUGGACAGCAGGGUU; siRNA; sense: DNA at AGT, 2'-fluoro at CU, [invAb] at 5' end, 3' end, backbone not given here; antisense: sugars from the 5' end rrrmffmfmmmfmmfmmmmmm, backbone not given here) [Site 1121]”, in the data set on rSCNN1A (r ENaCα) mRNA, the “Mean (rSCNN1A expression normalized to the level of rGAPDH)” value was determined as 0.84, the “Percent Reduction of the r ENaCα mRNA relative to a non-targeting control siNA (NTCs)” value was 34.6%, the “Avg ENaCα Expression (rSCNN1A)” value is 19.44 and the “Avg GAPDH Expression (rGAPDH)” value was found to be 23.01. For the same substance, in the data set with mSCNN1A mRNA, the “Mean (mSCNN1A expression normalized to the level of m36B4)” value is listed as 0.27, the “Percent Reduction of the mSCNN1A mRNA relative to a non-targeting control siNA” value was −14.5%, the “Avg ENaCα Expression (mSCNN1A)” value stood at 3.39 and the “Avg 36B4 Expression” value is reported as 11.45.

In the case of “B cuGuGcAAccAGAAcAAAu TTB / AUUuGuucuGGuuGcAcAGUU (chain 1 CUGUGCAACCAGAACAAAUTT; chain 2 AUUUGUUCUGGUUGCACAGUU; siRNA; chain 1: DNA at AGT, 2'-fluoro at CU, [invAb] at 5' end, 3' end, backbone not given here; chain 2: sugars from the 5' end rrrfmffffmmffmfmfmmmm, backbone not given here) [Site 781]”, in the data set with rSCNN1A (r ENaCα) mRNA, the “Mean (rSCNN1A expression normalized to the level of rGAPDH)” value stood at 0.86, the “Percent Reduction of the r ENaCα mRNA relative to a non-targeting control siNA (NTCs)” value was 32.8%, the “Avg ENaCα Expression (rSCNN1A)” value was found to be 23.09 and the “Avg GAPDH Expression (rGAPDH)” value came out at 26.57. In the data set on mSCNN1A mRNA, the “Mean (mSCNN1A expression normalized to the level of m36B4)” value was determined as 0.22, the “Percent Reduction of the mSCNN1A mRNA relative to a non-targeting control siNA” value was 9.8%, the “Avg ENaCα Expression (mSCNN1A)” value was determined as 3.50 and the “Avg 36B4 Expression” value worked out at 16.49.

Take “B cuccuGuccAAccuGGGcA TTB / UGCccAGGuuGGAcAGGAGUU (sense CUCCUGUCCAACCUGGGCATT; antisense UGCCCAGGUUGGACAGGAGUU; siRNA; sense: DNA at AGT, 2'-fluoro at CU, [invAb] at 5' end, 3' end, backbone not given here; antisense: sugars from the 5' end rrrffmmmffmmmfmmmmmmm, backbone not given here) [Site 1738]”: in the data set on rSCNN1A (r ENaCα) mRNA, the “Mean (rSCNN1A expression normalized to the level of rGAPDH)” value stood at 0.63, the “Percent Reduction of the r ENaCα mRNA relative to a non-targeting control siNA (NTCs)” value worked out at 31.1%, the “Avg ENaCα Expression (rSCNN1A)” value is recorded as 21.90 and the “Avg GAPDH Expression (rGAPDH)” value came to 35.43. Moreover, in the data set on mSCNN1A mRNA, the “Mean (mSCNN1A expression normalized to the level of m36B4)” value amounted to 0.13, the “Percent Reduction of the mSCNN1A mRNA relative to a non-targeting control siNA” value came out at 5.1%, the “Avg ENaCα Expression (mSCNN1A)” value amounted to 2.63 and the “Avg 36B4 Expression” value came to 20.59.

Consider “B uGGGcAGccAGuGGAGccu TTB / AGGcuccAcuGGcuGcccAUU (sense UGGGCAGCCAGUGGAGCCUTT; antisense AGGCUCCACUGGCUGCCCAUU; siRNA; sense: DNA at AGT, 2'-fluoro at CU, [invAb] at 5' end, 3' end, backbone not given here; antisense: sugars from the 5' end rrrffffmffmmffmfffmmm, backbone not given here) [Site 1751]”, for which, in the data set with rSCNN1A (r ENaCα) mRNA, the “Mean (rSCNN1A expression normalized to the level of rGAPDH)” value was 0.59, the “Percent Reduction of the r ENaCα mRNA relative to a non-targeting control siNA (NTCs)” value is 36.0%, the “Avg ENaCα Expression (rSCNN1A)” value was 26.87 and the “Avg GAPDH Expression (rGAPDH)” value amounted to 45.19. Besides, in the data set on mSCNN1A mRNA, the “Mean (mSCNN1A expression normalized to the level of m36B4)” value is given as 0.10, the “Percent Reduction of the mSCNN1A mRNA relative to a non-targeting control siNA” value is 27.6%, the “Avg ENaCα Expression (mSCNN1A)” value turned out to be 2.85 and the “Avg 36B4 Expression” value turned out to be 28.97.

With “B uGGcuGuGccuAcAucuuc TTB / GAAGAuGuAGGcAcAGccAUU (sense UGGCUGUGCCUACAUCUUCTT; antisense GAAGAUGUAGGCACAGCCAUU; siRNA; sense: DNA at AGT, 2'-fluoro at CU, [invAb] at 5' end, 3' end, backbone not given here; antisense: sugars from the 5' end rrrmmfmfmmmfmfmmffmmm, backbone not given here) [Site 1386]”, in the data set on rSCNN1A (r ENaCα) mRNA, the “Mean (rSCNN1A expression normalized to the level of rGAPDH)” value turned out to be 0.48, the “Percent Reduction of the r ENaCα mRNA relative to a non-targeting control siNA (NTCs)” value is given as 48.3%, the “Avg ENaCα Expression (rSCNN1A)” value worked out at 17.21 and the “Avg GAPDH Expression (rGAPDH)” value stood at 36.31. In the data set with mSCNN1A mRNA, the “Mean (mSCNN1A expression normalized to the level of m36B4)” value is 0.09, the “Percent Reduction of the mSCNN1A mRNA relative to a non-targeting control siNA” value was determined as 31.9%, the “Avg ENaCα Expression (mSCNN1A)” value was 2.35 and the “Avg 36B4 Expression” value came to 25.00.

In the case of “B uGuGGcuGuGccuAcAucu TTB / AGAuGuAGGcAcAGccAcAUU (sense UGUGGCUGUGCCUACAUCUTT; antisense AGAUGUAGGCACAGCCACAUU; siRNA; sense: DNA at AGT, 2'-fluoro at CU, [invAb] at 5' end, 3' end, backbone not given here; antisense: sugars from the 5' end rrrfmfmmmfmfmmffmfmmm, backbone not given here) [Site 1384]”, in the data set with rSCNN1A (r ENaCα) mRNA, the “Mean (rSCNN1A expression normalized to the level of rGAPDH)” value amounted to 0.66, the “Percent Reduction of the r ENaCα mRNA relative to a non-targeting control siNA (NTCs)” value is given as 27.8%, the “Avg ENaCα Expression (rSCNN1A)” value is 23.39 and the “Avg GAPDH Expression (rGAPDH)” value came out at 34.69. Moreover, in the data set with mSCNN1A mRNA, the “Mean (mSCNN1A expression normalized to the level of m36B4)” value amounted to 0.14, the “Percent Reduction of the mSCNN1A mRNA relative to a non-targeting control siNA” value is on record as −0.1%, the “Avg ENaCα Expression (mSCNN1A)” value worked out at 3.11 and the “Avg 36B4 Expression” value turned out to be 20.56.

What is called IC50 is the concentration that inhibits the measured activity by half. Turning to “B uGuGcAAccAGAAcAAAuc TTB / GAUuuGuucuGGuuGcAcAUU (chain 1 UGUGCAACCAGAACAAAUCTT; chain 2 GAUUUGUUCUGGUUGCACAUU; siRNA; B caps on sense ends, letter-case modifications not given here, further chemistry not given here) [Site 782]”, in the data set with rSCNN1A (r ENaCα) mRNA, the “Mean (rSCNN1A expression normalized to the level of rGAPDH)” value is recorded as 0.47, the “Percent Reduction of the r ENaCα mRNA relative to a non-targeting control siNA (NTCs)” value worked out at 63.7%, the “Avg ENaCα Expression (rSCNN1A)” value was 13.71 and the “Avg GAPDH Expression (rGAPDH)” value is recorded as 29.23. Also, in the data set on rSCNN1A (r ENaCα) mRNA (rat cell line, dose response, read-out: Rat IC50 (potency of ENaCα mRNA knockdown)), the half-inhibitory concentration (IC50) is 0.8 nM. Besides, the “Rat % KD (efficacy of ENaCα mRNA knockdown)” value in the data set on rSCNN1A (r ENaCα) mRNA (rat cell line, summary) worked out at 63%. Moreover, in the data set on mSCNN1A mRNA, the “Mean (mSCNN1A expression normalized to the level of m36B4)” value stood at 0.05, the “Percent Reduction of the mSCNN1A mRNA relative to a non-targeting control siNA” value turned out to be 78.2%, the “Avg ENaCα Expression (mSCNN1A)” value is listed as 0.85 and the “Avg 36B4 Expression” value was 16.72. Moreover, in the data set on mSCNN1A mRNA (mouse cell line, dose response, read-out: Mouse IC50 (potency of ENaCα mRNA knockdown)), the half-maximal inhibitory concentration (IC50) came out at 3.9 nM. For the same substance, the “Mouse % KD (efficacy of ENaCα mRNA knockdown)” value with mSCNN1A mRNA (mouse cell line, summary) turned out to be 78%.

As to “B uGuccAAccuGGGcAGccA TTB / UGGcuGcccAGGuuGGAcAUU (sense UGUCCAACCUGGGCAGCCATT; antisense UGGCUGCCCAGGUUGGACAUU; siRNA; sense: DNA at AGT, 2'-fluoro at CU, [invAb] at 5' end, 3' end, backbone not given here; antisense: sugars from the 5' end rrrffmfffmmmffmmmfmmm, backbone not given here) [Site 1742]”, in the data set with rSCNN1A (r ENaCα) mRNA, the “Mean (rSCNN1A expression normalized to the level of rGAPDH)” value came out at 0.79, the “Percent Reduction of the r ENaCα mRNA relative to a non-targeting control siNA (NTCs)” value is recorded as 14.3%, the “Avg ENaCα Expression (rSCNN1A)” value was found to be 28.30 and the “Avg GAPDH Expression (rGAPDH)” value came to 35.68. For the same substance, in the data set on mSCNN1A mRNA, the “Mean (mSCNN1A expression normalized to the level of m36B4)” value came out at 0.14, the “Percent Reduction of the mSCNN1A mRNA relative to a non-targeting control siNA” value is recorded as 1.0%, the “Avg ENaCα Expression (mSCNN1A)” value turned out to be 2.91 and the “Avg 36B4 Expression” value is 21.48.
